Data: PubChem BioAssay (NCI)
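Here, GI50 denotes the concentration required for 50% inhibition of growth. TGI marks complete inhibition of growth.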

Columns and labels:
Experiment in all cases: inhibition of tumour cell growth, NCI panel, 384-well format
NCI-H522 lung = tested on: NCI-H522 lung
UACC-62 melanoma = tested on: UACC-62 melanoma
NCI/ADR-RES ovarian = tested on: NCI/ADR-RES ovarian
DU-145 prostate = tested on: DU-145 prostate
HCT-15 colon = tested on: HCT-15 colon
SNB-75 CNS = tested on: SNB-75 CNS
HOP-62 NSCLC = tested on: HOP-62 NSCLC
NCI-H460 NSCLC = tested on: NCI-H460 NSCLC
ACHN renal = tested on: ACHN renal
MDA-MB-435 melanoma = tested on: MDA-MB-435 melanoma
A549 NSCLC = tested on: A549 NSCLC
OVCAR-4 ovarian = tested on: OVCAR-4 ovarian
HL-60(TB) leukemia = tested on: HL-60(TB) leukemia
HOP-92 NSCLC = tested on: HOP-92 NSCLC
EKVX NSCLC = tested on: EKVX NSCLC
SF-295 CNS = tested on: SF-295 CNS
SK-MEL-5 melanoma = tested on: SK-MEL-5 melanoma
MCF7 breast = tested on: MCF7 breast
SK-OV-3 ovarian = tested on: SK-OV-3 ovarian
IGROV1 ovarian = tested on: IGROV1 ovarian
SK-MEL-28 melanoma = tested on: SK-MEL-28 melanoma
SF-268 CNS = tested on: SF-268 CNS
MOLT-4 leukemia = tested on: MOLT-4 leukemia
UACC-257 melanoma = tested on: UACC-257 melanoma
NCI-H23 lung = tested on: NCI-H23 lung
CCRF-CEM leukemia = tested on: CCRF-CEM leukemia
BT-549 breast = tested on: BT-549 breast
HCT-116 colon = tested on: HCT-116 colon
PC-3 prostate = tested on: PC-3 prostate
M14 melanoma = tested on: M14 melanoma
MALME-3M melanoma = tested on: MALME-3M melanoma
SR leukemia = tested on: SR leukemia
RPMI-8226 leukemia = tested on: RPMI-8226 leukemia
OVCAR-3 ovarian = tested on: OVCAR-3 ovarian
CAKI-1 renal = tested on: CAKI-1 renal
NCI-H226 lung = tested on: NCI-H226 lung
TK-10 renal = tested on: TK-10 renal
T-47D breast = tested on: T-47D breast
786-0 renal = tested on: 786-0 renal
SNB-19 CNS = tested on: SNB-19 CNS
KM12 colon = tested on: KM12 colon
OVCAR-5 ovarian = tested on: OVCAR-5 ovarian
MDA-MB-468 breast = tested on: MDA-MB-468 breast
RXF 393 renal = tested on: RXF 393 renal
SF-539 CNS = tested on: SF-539 CNS
LOX IMVI melanoma = tested on: LOX IMVI melanoma
HS 578T breast = tested on: HS 578T breast
HCC-2998 colon = tested on: HCC-2998 colon
A498 renal = tested on: A498 renal
MDA-MB-231 breast = tested on: MDA-MB-231 breast
OVCAR-8 ovarian = tested on: OVCAR-8 ovarian
SN12C renal = tested on: SN12C renal
COLO 205 colon = tested on: COLO 205 colon
SW-620 colon = tested on: SW-620 colon
UO-31 renal = tested on: UO-31 renal
NCI-H322M lung = tested on: NCI-H322M lung
U251 glioblastoma = tested on: U251 glioblastoma

For `CNC(=O)c1cc(Oc2ccc(NC(=O)Nc3ccc(Cl)c(C(F)(F)F)c3)c(F)c2)ccn1`, the GI50 (NCI-H522 lung) was 2.83 µM, the TGI (NCI-H522 lung) was greater than 24.7 µM and the GI50 (UACC-62 melanoma) was 2.09 µM. The TGI (UACC-62 melanoma) was 7.66 µM, the GI50 (NCI/ADR-RES ovarian) was 2.06 µM and the TGI (NCI/ADR-RES ovarian) was 5.1 µM. It also gave a GI50 (DU-145 prostate) of 3.02 µM, a TGI (DU-145 prostate) of 9.32 µM and a GI50 (HCT-15 colon) of 2.52 µM. For the same molecule, the TGI (HCT-15 colon) was 9.38 µM, the GI50 (SNB-75 CNS) was 5.14 µM and the TGI (SNB-75 CNS) was 12.9 µM. It also gave a GI50 (HOP-62 NSCLC) of 2.98 µM, a TGI (HOP-62 NSCLC) of 10.1 µM and a GI50 (NCI-H460 NSCLC) of 3.08 µM. For the same molecule, the TGI (NCI-H460 NSCLC) was 10.7 µM, the GI50 (ACHN renal) was 3.38 µM and the TGI (ACHN renal) was 25.1 µM. The GI50 (MDA-MB-435 melanoma) was 3.14 µM, the TGI (MDA-MB-435 melanoma) was 14.6 µM and the GI50 (A549 NSCLC) was 2.66 µM. For the same molecule, the TGI (A549 NSCLC) was 8.57 µM, the GI50 (OVCAR-4 ovarian) was 2.55 µM and the TGI (OVCAR-4 ovarian) was 7.25 µM. For the same molecule, the GI50 (HL-60(TB) leukemia) was 0.734 µM, the TGI (HL-60(TB) leukemia) was 1.97 µM and the GI50 (HOP-92 NSCLC) was 2.27 µM. For the same molecule, the TGI (HOP-92 NSCLC) was 5.43 µM, the GI50 (EKVX NSCLC) was 2.12 µM and the TGI (EKVX NSCLC) was 5.43 µM. The GI50 (SF-295 CNS) was 2.13 µM, the TGI (SF-295 CNS) was 6.02 µM and the GI50 (SK-MEL-5 melanoma) was 1.6 µM. For the same molecule, the TGI (SK-MEL-5 melanoma) was 3.86 µM, the GI50 (MCF7 breast) was 1.93 µM and the TGI (MCF7 breast) was 5.47 µM. It also gave a GI50 (SK-OV-3 ovarian) of 3.2 µM, a TGI (SK-OV-3 ovarian) of 9.43 µM and a GI50 (IGROV1 ovarian) of 2.8 µM. It also gave a TGI (IGROV1 ovarian) of 14.5 µM, a GI50 (SK-MEL-28 melanoma) of 1.39 µM and a TGI (SK-MEL-28 melanoma) of 8.75 µM. It also gave a GI50 (SF-268 CNS) of 4.28 µM, a TGI (SF-268 CNS) of 14.4 µM and a GI50 (MOLT-4 leukemia) of 1.7 µM. For the same molecule, the TGI (MOLT-4 leukemia) was 3.2 µM, the GI50 (UACC-257 melanoma) was 2.45 µM and the TGI (UACC-257 melanoma) was 9.07 µM. It also gave a GI50 (NCI-H23 lung) of 1.34 µM, a TGI (NCI-H23 lung) of 3.43 µM and a GI50 (CCRF-CEM leukemia) of 3.4 µM. It also gave a TGI (CCRF-CEM leukemia) of 8.05 µM, a GI50 (BT-549 breast) of 3.2 µM and a TGI (BT-549 breast) of 7.34 µM. For the same molecule, the GI50 (HCT-116 colon) was 1.77 µM, the TGI (HCT-116 colon) was 8.6 µM and the GI50 (PC-3 prostate) was 3.79 µM. It also gave a TGI (PC-3 prostate) of 16.3 µM, a GI50 (M14 melanoma) of 1.69 µM and a TGI (M14 melanoma) of 8.56 µM. For the same molecule, the GI50 (MALME-3M melanoma) was 0.719 µM, the TGI (MALME-3M melanoma) was 3.09 µM and the GI50 (SR leukemia) was 1.47 µM. For the same molecule, the TGI (SR leukemia) was 2.82 µM, the GI50 (RPMI-8226 leukemia) was 1.73 µM and the TGI (RPMI-8226 leukemia) was 3.3 µM. It also gave a GI50 (OVCAR-3 ovarian) of 4.55 µM, a TGI (OVCAR-3 ovarian) of 12.6 µM and a GI50 (CAKI-1 renal) of 2.67 µM. For the same molecule, the TGI (CAKI-1 renal) was 7.59 µM, the GI50 (NCI-H226 lung) was 1.93 µM and the GI50 (TK-10 renal) was 3.49 µM. It also gave a TGI (TK-10 renal) of 76.2 µM, a GI50 (T-47D breast) of 1.56 µM and a TGI (T-47D breast) of 6.73 µM. It also gave a GI50 (786-0 renal) of 2.47 µM, a TGI (786-0 renal) of 7.76 µM and a GI50 (SNB-19 CNS) of 4.65 µM. The TGI (SNB-19 CNS) was greater than 88.5 µM, the GI50 (KM12 colon) was 3.03 µM and the TGI (KM12 colon) was 15.5 µM. For the same molecule, the GI50 (OVCAR-5 ovarian) was 5.79 µM, the TGI (OVCAR-5 ovarian) was 28.5 µM and the GI50 (MDA-MB-468 breast) was 1.72 µM. The TGI (MDA-MB-468 breast) was 4.31 µM, the GI50 (RXF 393 renal) was 2.49 µM and the TGI (RXF 393 renal) was 4.98 µM. The GI50 (SF-539 CNS) was 2.13 µM, the TGI (SF-539 CNS) was 6.63 µM and the GI50 (LOX IMVI melanoma) was 1.39 µM. It also gave a TGI (LOX IMVI melanoma) of 3.99 µM, a GI50 (HS 578T breast) of 2.33 µM and a TGI (HS 578T breast) of 7.35 µM. It also gave a GI50 (HCC-2998 colon) of 2.04 µM, a TGI (HCC-2998 colon) of 5.98 µM and a GI50 (A498 renal) of 3.66 µM. The TGI (A498 renal) was 21.7 µM, the GI50 (MDA-MB-231 breast) was 1.35 µM and the TGI (MDA-MB-231 breast) was 3.47 µM. The GI50 (OVCAR-8 ovarian) was 2.17 µM, the TGI (OVCAR-8 ovarian) was 5.79 µM and the GI50 (SN12C renal) was 3.16 µM. It also gave a TGI (SN12C renal) of 11 µM, a GI50 (COLO 205 colon) of 1.64 µM and a TGI (COLO 205 colon) of 4.7 µM. It also gave a GI50 (SW-620 colon) of 2.97 µM, a TGI (SW-620 colon) of 13.9 µM and a GI50 (UO-31 renal) of 2.02 µM. For the same molecule, the TGI (UO-31 renal) was 5.44 µM, the GI50 (NCI-H322M lung) was 2.66 µM and the TGI (NCI-H322M lung) was 6.21 µM. For the same molecule, the GI50 (U251 glioblastoma) was 3.06 µM and the TGI (U251 glioblastoma) was 11 µM.
